≈ marks a conversion by molar mass, not a printed value. Calls of active or inactive are those of the source. No cut-off for these calls is given here. Where only a bound is given, the exact number is not on record here.

This is an account of results in ChEMBL document CHEMBL2057096, “Discovery of novel 1,2,4-thiadiazole derivatives as potent, orally active agonists of sphingosine 1-phosphate receptor subtype 1 (S1P(1))” (J Med Chem, 2012).

For data set [1], the target named is Sphingosine 1-phosphate receptor 1 (Homo sapiens, UniProt P21453). Description: Agonist activity against S1P1 receptor by cell based FRET assay. The format is functional.
Sequence of Sphingosine 1-phosphate receptor 1 (P21453 whole entry): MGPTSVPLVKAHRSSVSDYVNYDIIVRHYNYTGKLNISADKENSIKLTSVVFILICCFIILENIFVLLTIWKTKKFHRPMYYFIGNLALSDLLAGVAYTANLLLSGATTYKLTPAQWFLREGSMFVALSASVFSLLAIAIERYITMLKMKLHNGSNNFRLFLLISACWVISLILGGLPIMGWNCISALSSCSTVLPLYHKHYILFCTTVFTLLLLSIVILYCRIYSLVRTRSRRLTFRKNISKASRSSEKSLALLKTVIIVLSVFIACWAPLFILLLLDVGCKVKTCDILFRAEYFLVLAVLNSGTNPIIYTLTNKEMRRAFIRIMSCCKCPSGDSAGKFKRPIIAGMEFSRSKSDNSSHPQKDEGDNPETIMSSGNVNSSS
In data set [2] the target is Sphingosine 1-phosphate receptor 3 (Homo sapiens, UniProt Q99500). Description: Agonist activity against S1P3 receptor by cell based FRET assay. The format is functional.
Sequence of Sphingosine 1-phosphate receptor 3 (Q99500 whole entry): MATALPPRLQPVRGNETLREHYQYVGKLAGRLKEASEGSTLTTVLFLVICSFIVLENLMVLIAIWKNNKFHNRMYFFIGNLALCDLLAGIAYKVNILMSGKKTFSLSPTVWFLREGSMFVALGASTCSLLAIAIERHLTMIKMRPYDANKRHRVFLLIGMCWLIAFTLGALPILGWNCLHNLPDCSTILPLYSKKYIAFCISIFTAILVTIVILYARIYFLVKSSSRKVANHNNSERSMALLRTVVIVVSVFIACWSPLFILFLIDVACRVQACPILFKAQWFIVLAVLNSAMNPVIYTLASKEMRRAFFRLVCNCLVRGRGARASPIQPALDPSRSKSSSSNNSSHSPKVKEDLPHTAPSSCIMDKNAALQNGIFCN
Data set [3] is described as follows: Permeability of the compound. The format is ADME. Conditions: not told; read-out: permeability.
The target of data set [4] is T1, Cytochrome P450 1A2 (Homo sapiens, UniProt P05177).
T1 sequence (P05177 whole entry): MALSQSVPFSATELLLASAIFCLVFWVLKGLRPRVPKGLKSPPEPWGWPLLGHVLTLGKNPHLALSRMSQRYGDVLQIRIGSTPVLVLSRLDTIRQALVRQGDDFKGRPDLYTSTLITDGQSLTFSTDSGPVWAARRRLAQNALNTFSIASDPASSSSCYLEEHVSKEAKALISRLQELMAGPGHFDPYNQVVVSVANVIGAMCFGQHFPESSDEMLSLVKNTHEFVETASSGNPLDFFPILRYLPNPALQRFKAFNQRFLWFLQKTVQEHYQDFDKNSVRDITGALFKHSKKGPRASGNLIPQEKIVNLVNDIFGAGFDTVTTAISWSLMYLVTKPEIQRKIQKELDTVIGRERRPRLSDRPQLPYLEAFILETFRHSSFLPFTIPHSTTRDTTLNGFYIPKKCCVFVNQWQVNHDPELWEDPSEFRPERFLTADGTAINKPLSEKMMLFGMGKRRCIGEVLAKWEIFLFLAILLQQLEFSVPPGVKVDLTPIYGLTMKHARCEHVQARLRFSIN
Description: Inhibition of CYP1A2. The format is ADME.

A short description of data set [5]: Solubility of the compound. The format is physicochemical.
Data set [6] concerns the target Cytochrome P450 2C9 (Homo sapiens, UniProt P11712). The data set can be described thus: Inhibition of CYP2C9. The format is ADME.
The target in data set [7] is Cytochrome P450 2C19 (Homo sapiens, UniProt P33261). Description: Inhibition of CYP2C19. The format is ADME.
Sequence of Cytochrome P450 2C19 (P33261 whole entry): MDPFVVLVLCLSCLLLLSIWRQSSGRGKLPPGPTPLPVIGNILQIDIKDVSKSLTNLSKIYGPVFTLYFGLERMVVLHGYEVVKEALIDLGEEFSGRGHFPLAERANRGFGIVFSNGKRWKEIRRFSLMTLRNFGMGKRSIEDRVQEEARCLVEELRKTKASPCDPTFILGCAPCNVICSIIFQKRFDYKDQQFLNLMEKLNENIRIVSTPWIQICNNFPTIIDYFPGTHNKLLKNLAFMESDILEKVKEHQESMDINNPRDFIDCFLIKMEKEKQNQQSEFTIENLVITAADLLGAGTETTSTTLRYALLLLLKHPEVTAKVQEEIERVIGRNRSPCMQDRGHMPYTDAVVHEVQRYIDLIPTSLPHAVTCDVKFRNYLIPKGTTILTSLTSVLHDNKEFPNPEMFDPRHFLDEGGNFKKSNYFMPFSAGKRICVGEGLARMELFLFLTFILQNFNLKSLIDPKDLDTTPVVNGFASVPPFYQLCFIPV
For data set [8], the target named is Cytochrome P450 2D6 (Homo sapiens, UniProt P10635). Description: Inhibition of CYP2D6. The class given is ADME.
Sequence of Cytochrome P450 2D6 (P10635 whole entry): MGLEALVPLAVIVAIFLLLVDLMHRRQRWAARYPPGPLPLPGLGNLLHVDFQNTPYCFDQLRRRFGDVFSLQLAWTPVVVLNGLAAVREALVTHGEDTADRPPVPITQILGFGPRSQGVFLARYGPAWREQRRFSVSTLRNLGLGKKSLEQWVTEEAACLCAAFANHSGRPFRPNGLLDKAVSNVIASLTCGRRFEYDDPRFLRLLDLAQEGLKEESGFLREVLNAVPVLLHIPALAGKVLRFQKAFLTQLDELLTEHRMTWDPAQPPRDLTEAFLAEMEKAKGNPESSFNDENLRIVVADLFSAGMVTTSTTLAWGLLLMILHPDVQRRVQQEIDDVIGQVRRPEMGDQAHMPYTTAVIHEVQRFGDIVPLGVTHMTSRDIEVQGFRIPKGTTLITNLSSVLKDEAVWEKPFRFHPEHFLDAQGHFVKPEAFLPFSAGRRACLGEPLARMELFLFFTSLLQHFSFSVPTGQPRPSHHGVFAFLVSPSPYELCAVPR
In data set [9] the target is Cytochrome P450 3A4 (Homo sapiens, UniProt P08684). The data set can be described thus: Inhibition of CYP3A4. The class given is ADME.
Sequence of Cytochrome P450 3A4 (P08684 whole entry): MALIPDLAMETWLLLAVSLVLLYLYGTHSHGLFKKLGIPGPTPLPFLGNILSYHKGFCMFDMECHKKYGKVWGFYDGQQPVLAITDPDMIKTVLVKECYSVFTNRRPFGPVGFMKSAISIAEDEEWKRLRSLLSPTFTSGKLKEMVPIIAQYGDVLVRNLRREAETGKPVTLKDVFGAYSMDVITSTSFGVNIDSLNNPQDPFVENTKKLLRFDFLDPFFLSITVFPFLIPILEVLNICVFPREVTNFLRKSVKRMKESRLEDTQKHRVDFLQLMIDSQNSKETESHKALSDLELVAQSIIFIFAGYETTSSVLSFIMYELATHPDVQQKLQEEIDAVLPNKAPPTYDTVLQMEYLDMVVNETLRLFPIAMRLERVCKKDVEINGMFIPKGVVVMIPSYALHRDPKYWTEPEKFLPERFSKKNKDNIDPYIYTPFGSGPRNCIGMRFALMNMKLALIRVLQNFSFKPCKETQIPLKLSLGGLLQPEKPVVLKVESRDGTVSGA
Data set [10] is described as follows: Percentage unbound in rat plasma. The class given is ADME, cell-free.
Data set [11] is described as follows: Ratio of drug level in brain to blood in C57BL/6 mouse at 2 mg/kg, ip after 1 hr. The class given is ADME, organism-based. Set-up: dose 2 mg/kg, route intraperitoneal.
The nature of data set [12]: Ratio of drug level in brain to blood in C57BL/6 mouse at 2 mg/kg, ip after 4 hrs. The format is ADME, organism-based. Further details: dose 2 mg/kg, route intraperitoneal.
Data set [13] in a line: Percentage unbound in human plasma. The format is ADME, cell-free.
The nature of data set [14]: Half life in mouse. The format is ADME, organism-based. Conditions: in vivo.
Data set [15] can be described thus: Oral bioavailability in mouse. The class given is ADME, organism-based. Conditions: in vivo.
For data set [16], the system named is Mus musculus. Description: Decrease in lymphocyte count in mouse acute lymphopenia model at 1 mg/kg, po after 4 hrs by flow cytometry relative to base line. The format is functional. Set-up: scale not given: the % may be the effect or the level left.
For data set [17], the system named is Mus musculus. Description: Decrease in lymphocyte count in mouse acute lymphopenia model at 1 mg/kg, po after 24 hrs by flow cytometry relative to base line. The format is functional. Further details: scale not given: the % may be the effect or the level left. Background: In flow cytometry, cells or beads pass a laser one at a time.
Data set [18] is described as follows: Oral bioavailability in Sprague-Dawley rat at 2 mg/kg. Conditions: in vivo. The class given is ADME, organism-based.
Data set [19] can be described thus: Half life in Sprague-Dawley rat at 1 mg/kg, iv and 2 mg/kg, po. The format is ADME, organism-based. Conditions: in vivo.
The nature of data set [20]: Stability of the compound assessed as glutathione adduct formation. The format is physicochemical.
For data set [21], the species on record is Homo sapiens. The data set can be described thus: Selectivity ratio of EC50 for S1P3 receptor to EC50 for S1P1 receptor.
The nature of data set [22]: AUC (0 to 24 hrs) in mouse. The class given is ADME, organism-based. Set-up: time < 24 hr. Conditions: plasma.
Data set [23] deals with Mus musculus. The data set can be described thus: Antiinflammatory activity in C57BL/6 mouse EAE model assessed as decrease in clinical symptoms at 1 mg/kg, po administered qd after 10 days post immunization. The class given is functional, organism-based. Set-up: dose 1 mg/kg.
For data set [24], the system named is Rattus norvegicus. Description: Antiinflammatory activity in rat assessed as decrease in lymphocyte count at 1 mg/kg, po qd for 7 days relative to base line. The format is functional. Further details: scale not given: the % may be the effect or the level left.
The test system of data set [25] is Rattus norvegicus. Description: Antiinflammatory activity in rat assessed as decrease in lymphocyte count at 1 mg/kg, po qd for 7 days measured after 3 days of last post dose relative to control. The class given is functional. Set-up: scale not given: the % may be the effect or the level left.
The species entered for data set [26] is Rattus norvegicus. Description: Decrease in lymphocyte count in rat. The class given is functional, organism-based.
The species named for data set [27] is Rattus norvegicus. Description: Decrease in lymphocyte count in rat after 60 hrs. The format is functional, organism-based.

Sequence of Cytochrome P450 2C9 (P11712 whole entry): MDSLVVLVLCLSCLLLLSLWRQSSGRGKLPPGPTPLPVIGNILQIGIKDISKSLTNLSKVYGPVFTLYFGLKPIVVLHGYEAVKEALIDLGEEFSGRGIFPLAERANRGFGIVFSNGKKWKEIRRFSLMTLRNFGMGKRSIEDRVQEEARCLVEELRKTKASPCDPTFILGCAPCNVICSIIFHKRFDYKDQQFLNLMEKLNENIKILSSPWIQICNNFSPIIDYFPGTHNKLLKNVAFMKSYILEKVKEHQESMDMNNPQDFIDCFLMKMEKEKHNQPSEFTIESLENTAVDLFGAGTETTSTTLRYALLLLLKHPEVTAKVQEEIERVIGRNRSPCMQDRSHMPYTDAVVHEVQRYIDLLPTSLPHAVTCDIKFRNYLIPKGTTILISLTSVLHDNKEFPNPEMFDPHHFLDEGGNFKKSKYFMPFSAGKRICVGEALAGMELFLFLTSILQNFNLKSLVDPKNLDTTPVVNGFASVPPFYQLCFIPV

In the case of `CCc1c(CCCC(=O)O)cccc1-c1noc(-c2ccc(OC(C)C)c(C#N)c2)n1`, the EC50 – broadly, the concentration needed to bring the measured effect to its halfway point – in data set [1] is 0.0002 µM; in data set [2], more than 10 µM. The Papp in data set [3] was 34.5 ×10⁻⁶ cm/s. The concentration for half-maximal inhibition (IC50) in data set [4], in data set [6], in data set [7], in data set [8] and in data set [9] was more than 10 µM in each case. In addition, the solubility (commonly how much of the substance goes into solution per volume) in data set [5] worked out at 46 µg/mL (≈ 110 µM). Also, the unbound share (fraction unbound) (usually the share of the substance not bound to proteins or other matrix) in [10] is 0.0004. Also, the Kp (in general, the ratio of the level in a tissue or fluid to that in plasma or blood) at 1 h in [11] came to 0.53. The Kp at 4 h in data set [12] is 0.68.
For `CCc1c(CCN2CCC(C(=O)O)CC2)cccc1-c1nsc(-c2ccc(OC(C)C)c(Cl)c2)n1`, the EC50 in [1] is 0.000158 µM; in data set [2], more than 3.16 µM. The IC50 in data set [4], in [6], in data set [7], in data set [8] and in data set [9] was more than 10 µM each time. For the same molecule, in data set [13], the free fraction (fraction unbound) was 0.0045. In addition, the Kp at 1 h in [11] came to 0.52. In data set [12], the Kp at 4 h was 1.48. The half-life (as a rule, how long it takes for the measured level to halve) was 15.6 h in [14] and 27.7 h in data set [19]. The bioavailability (as a rule, the share of a dose that reaches the circulation, judged against a reference dose that is usually intravenous) in [15] is 40%; in [18], 70%. For the same molecule, the Activity in data set [16] amounted to 16%; in data set [17], 40%. Also, in data set [20], the Stability result is recorded as “Stable”. The Ratio EC50 in [21] is more than 1000.
`CCc1c(CCCC(=O)O)cccc1-c1cnc(-c2ccc(OC(C)C)c(C#N)c2)nc1`: the half-maximal effective concentration (EC50) is 0.001 µM in [1] and more than 10 µM in data set [2]. Besides, in data set [3], the Papp is 19 ×10⁻⁶ cm/s. In data set [5], this molecule came in with a solubility of 161 µg/mL (≈ 375 µM). Besides, the midpoint of inhibition in data set [8], the IC50, lay at 6.31 µM. The free fraction (fraction unbound) in [13] is 0.0019. Further, the concentration ratio (Kp) at 1 h in data set [11] turned out to be 0.47. Moreover, the Kp at 4 h in data set [12] amounted to 0.48. For the same molecule, the half-life in data set [14] was 8 h. The molecule also had a bioavailability in data set [15] of 78%. Further, the exposure AUC(0-t) – broadly, the area under the concentration-time curve up to a stated or last time point – at 24 h in data set [22] worked out at 11500 ng·h/mL. Further, the Activity was 34.9% in data set [16] and 103.2% in data set [17]. For the same molecule, in data set [23], the outcome was Active.
With `CCc1c(CCCC(=O)O)cccc1-c1cnc(-c2ccc(OC(C)C)c(C#N)c2)s1`, the EC50 is 0.00316 µM in data set [1] and more than 10 µM in data set [2]. Moreover, the Papp in data set [3] amounted to 22 ×10⁻⁶ cm/s. Moreover, the solubility in data set [5] stood at 125 µg/mL (≈ 288 µM). In addition, the IC50 (commonly the midpoint of a concentration-inhibition curve) in [6] was 3.98 µM. Further, the free fraction (fraction unbound) in data set [13] turned out to be 0.001. In addition, the Kp at 1 h in data set [11] turned out to be 0.38. Moreover, the partition ratio (Kp) at 4 h in data set [12] amounted to 0.35. The molecule also showed a half-life in data set [14] of 3.6 h. For the same molecule, the bioavailability in data set [15] turned out to be 100%. Also, the AUC(0-t) at 24 h in [22] was 8340 ng·h/mL. Also, the Activity in data set [16] was 15.3%; in data set [17] it was 62.6%. Also, the result in data set [23] was inactive.
Regarding `CCc1c(CCCC(=O)O)cccc1-c1nnc(-c2ccc(OC(C)C)c(C#N)c2)s1`, the EC50 in data set [1] was 0.00126 µM; in [2], more than 10 µM. The Papp in data set [3] was 23 ×10⁻⁶ cm/s. The IC50 in data set [4], in [6], in [8] and in data set [9] was more than 10 µM throughout. Besides, the concentration in solution in data set [5] (solubility) came to 256 µg/mL (≈ 588 µM). Further, the fraction unbound in data set [13] came to 0.0051. Moreover, the Kp at 1 h in data set [11] was found to be 0.21. Besides, the Kp at 4 h in [12] turned out to be 0.19. In addition, the half-life in data set [14] was 3.8 h. In data set [15], this molecule yielded a bioavailability of 100%. The same molecule displayed an exposure AUC(0-t) at 24 h in data set [22] of 5940 ng·h/mL. In addition, the Activity in data set [16] stood at 37.9%; in [17], 43.6%. The result in data set [23] was inactive.
Regarding `CCc1c(CCN2CCC(C(=O)O)CC2)cccc1-c1nsc(-c2ccc(CC(C)C)c(C#N)c2)n1`, the EC50 in data set [1] is 0.000794 µM; in data set [2], more than 3.16 µM. The IC50 was more than 10 µM in data set [4]; more than 10 µM in data set [6]; more than 10 µM in data set [7]; more than 10 µM in data set [8]; more than 10 µM in data set [9]; 0.012 µg/mL (≈ 0.0239 µM) in data set [26]. In data set [13], this molecule had a fraction unbound of 0.0064. For the same molecule, in data set [11], the Kp at 1 h was determined as 0.23. Also, in [12], the partition ratio (Kp) at 4 h came to 0.65. Further, the results for the half-life in data set [14] and in data set [19] were 5.3 h and 6.2 h, respectively. In addition, the results for the bioavailability in data set [15] and in data set [18] were 45% and 50%, respectively. Further, the Activity in data set [16] was 23%; in [17] it was 72%; in data set [24], 20%; in [25], 70%; in [26], “Dose-dependent effect”. For the same molecule, in data set [20], the Stability entry was “Stable”. In data set [27], the outcome was inactive. The Ratio EC50 in [21] was more than 1000.
